# Experimental data reported in US9125862B2, “Methods for the treatment of Prader-Willi-like syndrome or non-organic failure to thrive (NOFITT) feeding disorder using an agonist of the oxytocin receptor” (Institut National de la Sante et de la Rechereche Medicale …, priority 2010, dated 2015).
# Assays:
# Type in all cases: in vivo, human
# adult patients with PWS [1] = test: Behavioural grid scores after a single intranasal administration, double-blind placebo-controlled pilot study; parameters: key to Change in behavioural scores: Depressive tendencies, Mean / Change in behavioural scores: Self-depreciation, Mean / Change in behavioural scores: Interest in love affair, Mean / Change in behavioural scores: Trust in others, Mean / Change in behavioural scores: Isolation tendencies, Mean / Change in behavioural scores: Sadness tendencies, Mean: grid score: negative = deterioration, positive = improvement
# Text: The inventors designed a double-blind randomised, placebo-controlled pilot study (ClinicalTrials.gov Identifier: NCT01038570) to be conducted in a dedicated PWS centre, where patients are regularly admitted for one month and live in a controlled environment. Patients know they have no free access to food but no doubt about the time and the content of meals. For each stay, 16 patients with PWS are admitted and take part in daily planned occupational and physical group activities. They also receive medical care as needed and psychological support. The 24 patients included in this study (16 females, 8 males, median age 28.5 years [18.7 to 43.6], median BMI 43 kg/m2 [19.4 to 67.4]) were stratified on gender and IQ (median IQ=51 [45 to 75]). […] Patients as well as parents or caregivers gave their written consent prior to entering the study. Exclusion criteria were an abnormal ECG and other severe cardiovascular problems. Patients were well known to the team. Each pair of patients of the same gender and same IQ range was evaluated the same day. The two patients of the pair received either OT or placebo in a double-blind randomisation. Patients were included in the study over the course of three series of stays.
# Each patient received a single intranasal administration of either placebo (saline solution) or OT (Syntocinon®/-Spray, Novartis, Basel, Switzerland) with three puffs per nostril (24 UI). The dose of 24 UI is the most frequently reported in the literature. […] This nurse knew neither the patients nor the study.
# (§1) The behaviour of the patients was carefully monitored, scored daily by the team psychologist, and documented on the case report form for the two days before drug administration, on the half-day following administration (early effects) and over the two days following drug administration (late effects). Both the staff and the rater were unaware of treatment status. There are currently no validated grids that evaluate the specific behavioural features of patients with PWS that they particularly wanted to study, i.e. tendencies towards isolation, sadness, and depression, self-depreciation, self-mutilation, conflicts with others, disruptive behaviour, interest in friendship, interest in love affairs, and trust of others. For this reason, they used an in-house grid developed by the caregivers and based on the routine observation of these patients in this dedicated centre for PWS with recognized expertise (17, 18). The criteria that the staff used to fill in the grid are explained in Table 1. The patients were well known to the team but the mean behavior status was re-evaluated during the first week of admission using the same grid. The behavioural features of the patients were scored as unchanged, moderately changed, or severely changed. For each criterion, a negative score reflected deterioration in the mean behavior status of the patient while a positive score reflected an improvement. Eating behaviour was also scored using three categories: usual, better than usual or worse, based on the analysis of each meal. The following were evaluated: amount of food intake per meal, amount of food requested per meal, duration of meal, and behaviour before/during/after the meal. To evaluate the early effect of OT, we analysed only the first meal after drug administration.
# adult patients with PWS [2] = test: Tests evaluating the understanding of social codes (Sally and Ann, Cartoons, RMET); settings: 45 minutes after intranasal 24 UI
# Method: Forty-five minutes after the intranasal administration, three tests evaluating the understanding of social codes were administered, which lasted one hour. Conversely to the behavioural grid, there was no pre-administration evaluation. The Sally and Ann test assesses one's ability to understand simple situations by story-telling and pictures. Cartoons depicting more complex social situations designed for the evaluation of autistic children were also used (“Cartoons”, unpublished test). The “Reading the Mind in the Eyes” test (RMET) assesses the ability to read emotions from subtle affective facial expressions, especially in the eyes. A shortened test with 19 images from the 36-item revised version was chosen by the team psychologist. In these three tests, TOM is necessary to understand and analyse the social situations that are presented. Statistical analysis was performed using the Mann-Whiney test, the Wilcoxon test or the chi2 test.
# adult patients with PWS [3] = test: Eating behaviour scoring after intranasal administration
# Text: as §1, with “For this reason, they used an in-house grid developed by the caregivers and based on the routine observation of these patients in this dedicated centre for PWS with recognized expertise (17, 18). The criteria that the staff used to fill in the grid are explained in Table 1.” left out, “For each criterion, a negative score reflected deterioration in the mean behavior status of the patient while a positive score reflected an improvement.” left out
# [4] = 19 patients with deletions, P=0.05, data not shown
# [5] = Early effect (half-day following administration), intranasal 24 UI
# [6] = Late effect (mean of two days following administration), intranasal 24 UI
# [7] = Pre-administration (mean of two days before), OT group baseline
# [8] = pre-post difference (late effect score minus pre-administration score), OT group
smiles,measurement,setting,value
CC[C@H](C)[C@@H]1NC(=O)[C@H](Cc2ccc(O)cc2)NC(=O)[C@@H](N)CSSC[C@@H](C(=O)N2CCC[C@H]2C(=O)N[C@@H](CC(C)C)C(=O)NCC(N)=O)NC(=O)[C@H](CC(N)=O)NC(=O)[C@H](CCC(N)=O)NC1=O [oxytocin],effect on disruptive behaviour,"adult patients with PWS [1]; 19 patients with deletions (9 OT, 10 placebo), P=0.04, data not shown",significant effect
same,interest in friendship,adult patients with PWS [1]; [4],more interest in friendship
same,trust in others,adult patients with PWS [1]; [4],trend towards more trust in others
same,sadness tendencies,"adult patients with PWS [1]; 19 patients with deletions, P=0.07, data not shown",fewer sadness tendencies
same,Depressive tendencies score,adult patients with PWS [1]; [5],0 ± 0
same,Disruptive behaviour score,adult patients with PWS [1]; [5],−0.167 ± 0.389
same,Interest in friendship score,adult patients with PWS [1]; [5],0.917 ± 0.515
same,Interest in love affairs score,adult patients with PWS [1]; [5],0.917 ± 0.515
same,Isolation tendencies score,adult patients with PWS [1]; [5],−0.083 ± 0.289
same,Sadness tendencies score,adult patients with PWS [1]; [5],−0.083 ± 0.289
same,Self-depreciation score,adult patients with PWS [1]; [5],−0.083 ± 0.289
same,Self-mutilation score,adult patients with PWS [1]; [5],−0.083 ± 0.289
same,Trust in others score,adult patients with PWS [1]; [5],0.833 ± 0.389
same,Conflicts with others score,adult patients with PWS [1]; [6],−0.111 ± 0.205
same,Depressive tendencies score,adult patients with PWS [1]; [6],0 ± 0
same,Interest in friendship score,adult patients with PWS [1]; [6],1.028 ± 0.234
same,Interest in love affairs score,adult patients with PWS [1]; [6],0.903 ± 0.411
same,Isolation tendencies score,adult patients with PWS [1]; [6],0 ± 0
same,Self-depreciation score,adult patients with PWS [1]; [6],0 ± 0
same,Self-mutilation score,adult patients with PWS [1]; [6],−0.083 ± 0.195
same,Conflicts with others score,adult patients with PWS [1]; [7],−0.319 ± 0.359
same,Depressive tendencies score,adult patients with PWS [1]; [7],−0.056 ± 0.192
same,Disruptive behaviour score,adult patients with PWS [1]; [7],−0.431 ± 0.344
same,Interest in friendship score,adult patients with PWS [1]; [7],0.875 ± 0.433
same,Interest in love affairs score,adult patients with PWS [1]; [7],0.972 ± 0.531
same,Isolation tendencies score,adult patients with PWS [1]; [7],−0.083 ± 0.289
same,Sadness tendencies score,adult patients with PWS [1]; [7],−0.194 ± 0.407
same,Self-depreciation score,adult patients with PWS [1]; [7],−0.056 ± 0.192
same,Self-mutilation score,adult patients with PWS [1]; [7],−0.278 ± 0.468
same,Trust in others score,adult patients with PWS [1]; [7],0.861 ± 0.332
same,disruptive behaviour,"adult patients with PWS [1]; excluding the seven patients on psychotropic medications, two days following administration, P=0.04, data not shown",less disruptive behaviour
same,"Change in behavioural scores: Conflicts with others, Mean",adult patients with PWS [1]; [8],0.208
same,"Change in behavioural scores: Depressive tendencies, Mean",adult patients with PWS [1]; [8],0.056
same,"Change in behavioural scores: Interest in friendship, Mean",adult patients with PWS [1]; [8],0.153
same,"Change in behavioural scores: Interest in love affair, Mean",adult patients with PWS [1]; [8],−0.069
same,"Change in behavioural scores: Isolation tendencies, Mean",adult patients with PWS [1]; [8],0.083
same,"Change in behavioural scores: Sadness tendencies, Mean",adult patients with PWS [1]; [8],0.111
same,"Change in behavioural scores: Self-depreciation, Mean",adult patients with PWS [1]; [8],0.056
same,"Change in behavioural scores: Trust in others, Mean",adult patients with PWS [1]; [8],0.167
same,patients who successfully completed the Sally and Ann test,"adult patients with PWS [2]; OT group n=12, placebo 50%, P=0.19",Eighty-three
same,Cartoons score,"adult patients with PWS [2]; OT vs placebo, P=0.56",3.75 (1-18)
same,total RMET score,"adult patients with PWS [2]; placebo 5.5 (1-11), P=0.18",7 (4-9)
same,"scores assessing eating behaviour, OT vs placebo group",adult patients with PWS [3]; intranasal 24 UI,No statistical difference
same,patients who did not feel hungry and slightly decreased their food intake,"adult patients with PWS [3]; over the two days following intranasal administration, five patients, placebo 10%",45%
